Laboratory results as given in US7105675B2, “Pyridomorphinans, thienomorphinans and use thereof” (Southern Research Institute, priority 1999, dated 2006).
Like-named read-outs stand apart in the source and are kept apart here.

Experiments:
[1] = target: T1, μ opioid receptor (Rattus norvegicus, UniProt P33535); assay: Radioligand binding, mu sites, displacement of [3H]DAMGO in rat brain membranes
T1 construct: Rat membranes were prepared each day using a partially thawed frozen rat brain; from tissue; host or cells: rat brain membranes
Protocol: (§1) Radioligand Binding Assays. Mu binding sites were labeled using [^3H]DAMGO (1–3 nM). Rat membranes were prepared each day using a partially thawed frozen rat brain which was homogenized with a polytron in 10 mL/brain of ice cold 10 mM Tris-HCl, pH 7.0. Membranes were then centrifuged twice at 30,000 g for 10 min and resuspended with ice-cold buffer following each centrifugation. After the second centrifugation, the membranes were resuspended in 50 mM Tris-HCl, pH 7.4 (50 mL/brain) at 25° C. Incubations proceeded for 2 h at 25° C. in 50 mM Tris-HCl, pH 7.4, along with a protease inhibitor cocktail (PIC). The nonspecific binding was determined using 20 μM of levallorphan. Delta binding sites were labeled using [^3]DADLE (2 nM) and rat brain membranes. Rat membranes were prepared each day using a partially thawed frozen rat brain which was homogenized with a polytron in 10 mL/brain of ice cold 10 mM Tris-HCl, pH 7.0. Membranes were then centrifuged twice at 30,000 g for 10 min and resuspended with ice-cold buffer following each centrifugation. After the second centrifugation, the membranes were resuspended in 50 mM Tris-HCl, pH 7.4 (50 mL/brain) at 25° C. Incubations proceeded for 2 h at 25° C. in 50 mM Tris-HCl pH 7.4, containing 100 mM choline chloride, 3 mM MnCl2, and 100 nM DAMGO to block binding to μ sites, and PIC. Nonspecific binding was determined using 20 μM levallorphan. Kappa binding sites were labeled using [^3H]U69,593 (2 nM). Guinea pig brain membranes were prepared each day using partially thawed guinea pig brain which was homogenized with a polytron in 10 mL/brain of ice cold 10 mM Tris-HCl pH 7.0. The membranes were then centrifuged twice at 30,000 g for 10 min and resuspended with ice-cold buffer following each centrifugation. After the second centrifugation, the membranes were resuspended in 50 mM Tris-HCl, pH 7.4 (75 mL/brain) at 25° C. Incubations proceeded for 2 h at 25° C. in 50 mM Tris-HCl, pH 7.4, containing 1 μg/mL of captopril and PIC. Nonspecific binding was determined using 1 μM U69,593. Each ^3H ligand was displaced by 8–10 concentrations of test drug, two times. Compounds were prepared as 1 mM solution with 10 mM Tris buffer (pH 7.4) containing 10% DMSO before drug dilution. All drug dilutions were done at 10 mM Tris-HCl, pH 7.4, containing 1 mg/mL bovine serum albumin. All washes were done with ice-cold 10 mM Tris-HCl, pH 7.4. The IC50 and slope factor (N) were obtained by using the program MLAB-PC (Civilized Software, Bethesda, Md.). Ki values were calculated according to the equation Ki=IC50/(1+[L]/Kd).

[2] = target: T2, κ1 opioid receptor (Cavia porcellus, UniProt P41144); assay: Radioligand binding, kappa sites, displacement of [3H]U69,593 in guinea pig brain membranes
T2 construct: Guinea pig brain membranes were prepared each day using partially thawed guinea pig brain; from tissue; host or cells: guinea pig brain membranes
Protocol: as §1

[3] = target: T3, δ opioid receptor (DPDPE) in MVD (Mus musculus, UniProt P32300); assay: Antagonist activity against DPDPE in electrically stimulated mouse vas deferens (MVD); assay type: cell-based; conditions: for antagonist activity DPDPE (δ) MVD IC50 ratio: 1 μM compound, 30 min incubation, IC50 of DPDPE with antagonist divided by control IC50; for Ke selectivity ratio μδ: Ke GPI (μ) over Ke MVD (δ)
T3 construct: Electrically-induced smooth muscle contractions of mouse vas deferens and strips of guinea pig ileum longitudinal muscle myenteric plexus were used; from tissue; host or cells: mouse vas deferens (male ICR mice)
Protocol: (§2) Bioassays in GPI and MVD smooth muscle preparations. Electrically-induced smooth muscle contractions of mouse vas deferens and strips of guinea pig ileum longitudinal muscle myenteric plexus were used. Tissues came from maile ICR mice weighing 25–40 g and male Hartley guinea pigs weighing 250–500 g. The tissues were tied to gold chain with suture silk, suspended in 20 mL baths containing 37° C. oxygenated (95% O2, 5% CO2) Krebs bicarbonate solution (magnesium free for the MVD), and allowed to equilibrate for 15 min. The tissues were then stretched to optimal length previously determined to be 1 g tension (0.5 g for MVD) and allowed to equilibrate for 15 min. The tissues were stimulated transmurally between platinum wire electrodes at 0.1 Hz, 0.4 ms pulses (2-ms pulses for MVD), and supramaximal voltage. An initial dose-response curve of DPDPE or PL-017 was constructed at the start of each assay to establish tissue effects, allowing each tissue to be used as its own control.
(§3) Tissues not producing typical results were not used. Experimental compounds were added to the baths in 14–60 μL volumes. Succeeding doses of argonist were added cumulatively to the bath at 3 minute intervals to produce a concentration-response curve. The tissues were then washed extensively with fresh buffer until the original contraction height was re-established. […] Antagonist effects to DPDPE and PL-017 were assayed after incubation of the tissues with 1 μM concentration of the compound in the bath for 30 minutes. The tissues were then washed with fresh buffer for 30 min, and the agonist dose-response curve was repeated. Rightward shifts in the dose-response curves were calculated by dividing the antagonized dose-response curve IC50 value by the unantagoniced IC50 value. IC50 values represent the mean of two to four tissues. IC50 estimates and their associated standard errors were determined by using a computerized nonlinear least-squares method.

[4] = test system: μ opioid receptor (PL017) in GPI; assay: Antagonist activity against PL-017 in electrically stimulated guinea pig ileum (GPI); assay type: cell-based; conditions: for antagonist activity PL017 (μ) GPI IC50 ratio: 1 μM compound, 30 min incubation, IC50 of PL-017 with antagonist divided by control IC50; for antagonist activity PL017 (μ) GPI Ke: Ke = [antagonist]/(IC50 ratio − 1), PL-017 as agonist, n = 3
Protocol: as §2, §3

[5] = test system: mouse vas deferens; assay: Agonist activity in MVD smooth muscle preparation, inhibition of contraction; assay type: cell-based; conditions: read-out: agonist activity MVD IC50 (nM) or % max resp
Protocol: as §2, §3

[6] = test system: guinea pig ileum longitudinal muscle myenteric plexus; assay: Agonist activity in GPI smooth muscle preparation, inhibition of contraction; assay type: cell-based; conditions: for inhibition at 1 µM: Cavia porcellus, read-out: agonist activity GPI IC50 (nM) or % max resp
Protocol: as §2, §3

[7] = target: δ opioid receptor (Rattus norvegicus, UniProt P33533); assay: Radioligand binding, delta sites, displacement of [3H]DADLE in rat brain membranes; parameters: Rat membranes were prepared each day using a partially thawed frozen rat brain; from tissue; host or cells: rat brain membranes; conditions: for Selectivity Ratio κ1δ / Selectivity Ratio μ/δ: ratio of Ki values
Protocol: as §1

T2 sequence (P41144 whole entry): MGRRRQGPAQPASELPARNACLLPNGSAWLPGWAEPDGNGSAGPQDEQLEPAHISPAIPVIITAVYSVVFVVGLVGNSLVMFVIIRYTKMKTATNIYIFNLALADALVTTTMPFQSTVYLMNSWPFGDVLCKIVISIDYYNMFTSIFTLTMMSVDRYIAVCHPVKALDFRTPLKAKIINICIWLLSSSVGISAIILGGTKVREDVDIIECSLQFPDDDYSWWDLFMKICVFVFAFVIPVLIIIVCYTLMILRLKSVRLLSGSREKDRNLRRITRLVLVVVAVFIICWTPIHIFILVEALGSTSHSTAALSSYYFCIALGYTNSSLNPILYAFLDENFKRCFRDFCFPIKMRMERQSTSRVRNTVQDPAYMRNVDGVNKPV
Sequence of δ opioid receptor (P33533 whole entry): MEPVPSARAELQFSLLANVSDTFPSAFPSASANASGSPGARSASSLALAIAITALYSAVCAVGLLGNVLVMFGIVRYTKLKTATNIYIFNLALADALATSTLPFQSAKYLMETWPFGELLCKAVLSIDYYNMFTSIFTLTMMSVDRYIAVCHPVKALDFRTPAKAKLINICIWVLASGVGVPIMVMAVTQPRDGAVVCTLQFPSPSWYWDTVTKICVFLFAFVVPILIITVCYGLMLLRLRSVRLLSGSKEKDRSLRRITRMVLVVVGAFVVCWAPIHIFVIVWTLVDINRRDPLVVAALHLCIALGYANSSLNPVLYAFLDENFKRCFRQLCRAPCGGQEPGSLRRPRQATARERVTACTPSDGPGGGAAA
T1 sequence (P33535 whole entry): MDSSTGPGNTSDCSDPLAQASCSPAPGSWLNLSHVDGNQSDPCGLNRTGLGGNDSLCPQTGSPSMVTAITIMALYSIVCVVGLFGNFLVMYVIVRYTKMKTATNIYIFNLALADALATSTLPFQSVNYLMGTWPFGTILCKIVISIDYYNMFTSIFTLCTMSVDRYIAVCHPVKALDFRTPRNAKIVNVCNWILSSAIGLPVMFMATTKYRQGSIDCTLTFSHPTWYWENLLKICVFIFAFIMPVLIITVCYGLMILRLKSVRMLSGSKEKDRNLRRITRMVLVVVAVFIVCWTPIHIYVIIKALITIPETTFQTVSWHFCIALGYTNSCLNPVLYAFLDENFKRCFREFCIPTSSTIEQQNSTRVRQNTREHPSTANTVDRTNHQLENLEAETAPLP
T3 sequence (P32300 whole entry): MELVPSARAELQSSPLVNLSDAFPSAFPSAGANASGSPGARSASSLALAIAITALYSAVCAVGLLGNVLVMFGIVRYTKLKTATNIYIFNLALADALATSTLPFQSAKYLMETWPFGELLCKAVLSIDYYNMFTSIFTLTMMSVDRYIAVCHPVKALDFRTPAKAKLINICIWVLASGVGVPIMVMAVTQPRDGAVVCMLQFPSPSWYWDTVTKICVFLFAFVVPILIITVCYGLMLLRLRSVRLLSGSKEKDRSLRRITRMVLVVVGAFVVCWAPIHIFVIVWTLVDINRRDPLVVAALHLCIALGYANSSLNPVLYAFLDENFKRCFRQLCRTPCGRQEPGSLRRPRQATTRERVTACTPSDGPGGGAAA

Row | SMILES | Ki [1] [nM] | Ki [2] [nM] | Kb [3] [nM] | antagonist activity DPDPE (δ) MVD IC50 ratio [3] | Ke selectivity ratio μδ [3] | antagonist activity PL017 (μ) GPI IC50 ratio [4] | antagonist activity PL017 (μ) GPI Ke [4] [nM] | inhibition at 1 µM [5] [%] | inhibition at 1 µM [6] [%] | Ki [7] [nM] | Selectivity Ratio κ1δ ([7]; thienomorphinans) | Selectivity Ratio μ/δ ([7]; thienomorphinans) | Ki ([1]; pyridomorphinans, [3H]DAMGO (1.4–2.0 nM), rat brain membranes, read-out: Ki (nM) ± SEM μ) [nM] | Ki ([2]; pyridomorphinans, [3H]U69,593 (1.2–2.2 nm), guinea pig brain membranes, read-out: Ki (nM) ± SEM κ1) [nM] | Selectivity Ratio κ1δ ([7]; pyridomorphinans) | Selectivity Ratio μ/δ ([7]; pyridomorphinans) | agonist activity GPI IC50 (nM) or % max resp ([6]; percentage inhibition of contraction at 1 μM) [%]
1 | COC(=O)c1c(N)sc2c1[C@@H]1Oc3c(O)ccc4c3[C@@]13CCN(CC1CC1)[C@H](C4)[C@]3(O)C2 [Compound 8b, 5′-Amino-4′-carbomethoxy-17-(cyclopropylmethyl)-6,7-didehydro-3,14-dihydroxy-4,5α-epoxythieno[2′,3′:7,6]morphinan] | 29 ± 4 | 8.7 ± 0.34 | 21 | 53.5 ± 10.1 | 1.7 | 39.1 ± 11.6 | 35 | 0 | 0 | 6.6 ± 0.3 | 1.3 | 4.4 | – | – | – | – | –
2 | CCOC(=O)c1cnc2c(c1)C[C@@]1(O)[C@H]3Cc4ccc(O)c5c4[C@@]1(CCN3CC1CC1)[C@H]2O5 [Compound 7d, 5′-Carbethoxy-17-(cyclopropylmethyl)-6,7-didehydro-3,14-dihydroxy-4,5α-epoxypyrido[2′,3′:6,7]morphinan] | – | – | 20 | – | – | – | 74 | 0 | 0 | – | – | – | 37 ± 3.4 | 9.6 ± 0.93 | – | – | –
3 | NC(=O)c1c(N)sc2c1[C@@H]1Oc3c(O)ccc4c3[C@@]13CCN(CC1CC1)[C@H](C4)[C@]3(O)C2 [Compound 8e, 5′-Amino-4′-aminocarbonyl-17-(cyclopropylmethyl)-6,7-didehydro-3,14-dihydroxy-4,5α-epoxythieno[2′,3′:7,6]morphinan] | 21 ± 1.3 | 2 ± 0.2 | 10 | 118.6 ± 38.4 | 2.4 | 47.8 ± 10.7 | 24 | 5 | 4 | 3.7 ± 0.2 | 0.5 | 5.7 | – | – | – | – | –
4 | CCOC(=O)c1c(N)sc2c1[C@@H]1Oc3c(O)ccc4c3[C@@]13CCN(CC1CC1)[C@H](C4)[C@]3(O)C2 [Compound 8c, 5′-Amino-4′-carbethoxy-17-(cyclopropylmethyl)-6,7-didehydro-3,14-dihydroxy-4,5α-epoxythieno[2′,3′:7,6]morphinan] | 20 ± 1 | 9 ± 0.81 | 68 | 19.8 ± 6.6 | 0.4 | 46.0 ± 21.9 | 26 | 11 | 0 | 5 ± 0.2 | 1.8 | 4.0 | – | – | – | – | –
5 | O=[N+]([O-])c1cnc2c(c1)CC1(O)C3Cc4ccc(O)c5c4C1(CCN3CC1CC1)C2O5 (stereo not drawn) [Compound 7e, 17-(Cyclopropylmethyl)-6,7-didehydro-3,14-dihydroxy-4,5α-epoxy-5′-nitropyrido[2′,3′:6,7]morphinan] | 17.5 ± 2 | 92 ± 12.8 | 51 | 20.7 ± 4.2 | 5.3 | 4.7 ± 0.59 | 271 | 14 | 0 | 5.5 ± 0.67 | – | – | – | – | 17 | 3.2 | –
6 | N#Cc1c(N)sc2c1[C@@H]1Oc3c(O)ccc4c3[C@@]13CCN(CC1CC1)[C@H](C4)[C@]3(O)C2 [Compound 8a, 5′-Amino-4′-cyano-17-(cyclopropylmethyl)-6,7-didehydro-3,14-dihydroxy-4,5α-epoxythieno [2′,3′:7,6]morphinan] | 5.5 ± 0.2 | 1.5 ± 0.12 | 9.6 | 109.6 ± 12.1 | 0.9 | 160.3 ± 41.6 | 8.7 | 0 | 0 | 2.6 ± 0.11 | 0.6 | 2.1 | – | – | – | – | –
7 | N#Cc1cnc2c(c1)CC1(O)C3Cc4ccc(O)c5c4C1(CCN3CC1CC1)C2O5 (stereo not drawn) [Compound 7c, 5′-Cyano-17-(cyclopropylmethyl)-6,7-didehydro-3,14-dihydroxy-4,5α-epoxypyrido[2′,3′:6,7]morphinan] | 16 ± 1.8 | 33.9 ± 2 | 44 | 23.6 ± 2.2 | – | 2.2 ± 1.1 | – | 0 | 0 | 4.5 ± 0.28 | – | – | – | – | 7.5 | 3.6 | –
8 | Nc1sc2c(c1C(=O)OCc1ccccc1)[C@@H]1Oc3c(O)ccc4c3[C@@]13CCN(CC1CC1)[C@H](C4)[C@]3(O)C2 [Compound 8d, 5′-Amino-4′-benzyloxycarbonyl-17-(cyclopropylmethyl)-6,7-didehydro-3,14-dihydroxy-4,5α-epoxythieno[2′,3′:7,6]morphinan] | 61 ± 3 | 48 ± 3 | 5 | 289 ± 13 | – | – | – | 11 | 40 | 7 ± 0.3 | 6.9 | 8.7 | – | – | – | – | 40
9 | Oc1ccc2c3c1OC1c4ncc(Br)cc4CC4(O)C(C2)N(CC2CC2)CCC314 (stereo not drawn) [Compound 7b, 5′-Bromo-17-(cyclopropylmethyl)-6,7-didehydro-3,14-dihydroxy-4,5α-epoxypyrido[2′,3′:6,7]morphinan] | 15.5 ± 1 | 55.7 ± 7 | 3.1 | 325 ± 127 | 14 | 43.9 ± 25.6 | 23 | 0 | 0 | 1.2 ± 0.13 | – | – | – | – | 46 | 13 | –
